Laboratory results published in patent US20080306001A1, “TRANSCRIPTIONAL MODULATION OF EXTRACELLULAR MATRIX (ECM) OF DERMAL FIBROBLASTS” (priority 2007, published 2008).

Columns and labels:
[1] = tested on: human dermal fibroblast cell lines obtained from elderly patients; assay: Effect of CPP mimicking peptides on synthesis of collagen I, collagen II and elastin in aged dermal fibroblasts (Western blot); assay type: cell-based; details: peptide 10 μM
Procedure: The ability to interfere interaction of TAF4, BRG1 and N-CoR1 with the active transcriptional complex and stimulate synthesis of collagen I, collagen II and elastin was tested on 2 human dermal fibroblast cell lines obtained from elderly patients. It has been shown that: • TAF4 suppression using siRNA stimulates expression of numerous genes in embryonic fibroblasts. (Mengus G, Fadloun A, Kobi D, Thibault C, Perletti L, Michel I, Davidson I. 2005. TAF4 inactivation in embryonic fibroblasts activates TGFbeta signaling and autocrine growth. EMBO J. 2005 Aug. 3; 24(15):2753-67.) • Brg1 inhibits numerous genes during development. (Inayoshi Y, Kaneoka H, Machida Y, Terajima M, Dohda T, Miyake K, Iijima S. 2005. Repression of GR-mediated expression of the tryptophan oxygenase gene by the SWI/SNF complex during liver development. J Biochem (Tokyo). 2005 October; 138(4):457-65) • N-CoR1 plays a crucial role in the repressive activity of diverse transcription factors (J. Frasor, J. M. Danes, C. C. Funk and B. S. Katzenellenbogen. 2005. Estrogen down-regulation of the corepressor N-CoR: Mechanism and implications for estrogen derepression of N-CoR-regulated genes. PNAS. vol. 102 no. 37, 13153-13157.) • SMAD7 functions as a component of negative feedback regulation that controls timining and extent of TGFbeta signaling (Zhu X, Topouzis S, Liang L F, Stotish RL. Myostatin signaling through Smad2, Smad3 and Smad4 is regulated by the inhibitory Smad7 by a negative feedback mechanism. Cytokine. 2004 Jun. 21; 26(6):262-72.) • TAF10 is one of the TATA box-binding protein-associated factors (TAFs), which constitute the TFIID complex.
(§1) Human dermal fibroblasts were cultured in standard conditions (DMEM, 10% FCS, penicillin+streptomycin) and used in experiments after three passages in the laboratory. Cells were grown in 24 well plates, each treatment in triplicates. Cells were plated 16 hours prior treatments started. Peptides were added to the media, and media was changed every day during 7 day experiment. CPP concentration was 10 μM.
(§2) Western blot using antibodies against fibronectin, thrombospondin, collagen I, collagen II, collagen 4, elastin, MMP1, MMP2, MMP7 and TIMP1 were performed using standard protocols. Cells were lysed in SDS loading buffer and separated on 5% SDS PAGE following transfer onto PVD membrane using semidry blotting. Antibodies were diluted 1:2000 and incubated for 2 hours followed by secondary antibody conjugated to alkaline phosphatase. Antibody binding was visualized using one step BCIP reagent (Pierce).

[2] = tested on: human dermal fibroblasts; assay: Effect of peptides on expression of growth factors, protein (Western blot); assay type: cell-based; details: peptide 10 μM
Procedure: (§3) Human dermal fibroblasts were cultured in standard conditions (DMEM, 10% FCS, penicillin+streptomycin) and used in experiments after three passages in the laboratory. Cells were grown in 12 well plates, each treatment in triplicates. Cells were plated 16 hours prior treatments started. Peptides were added to the media, and media was changed every day during 7 day experiment. CPP concentration was 10 μM.
Western blots using antibodies against growth factors were performed using standard protocols. Cells were lysed in SDS loading buffer and separated on 5% SDS PAGE following transfer onto PVD membrane using semidry blotting. Antibodies were diluted 1:2000 and incubated for 2 hours followed by secondary antibody conjugated to alkaline phosphatase. Antibody binding was visualized using one step BCIP reagent (Pierce).

[3] = tested on: dermal fibroblasts; assay: Effect of interfering peptides on expression of ECM components, mRNA level (RT-PCR); assay type: cell-based, human; details: peptide 1 μM, 24 hours
Procedure: as §1
(§4) Total RNA from various human tissues was purified using RNAwiz (Ambion, USA) and subjected to subsequent DNase I treatment using the DNA-Free kit (Ambion). Total RNA from cancer cells was purified by using 4PCRmini kit (Ambion). First-strand cDNAs were synthesized with Superscript III reverse transcriptase (Invitrogen, USA) and 5 μg of total RNA using oligo d(T) priming in a final reaction volume of 50 μL
The cDNA was amplified by PCR using the 2,5U Hot-Firepol (Solis BioDyne, Estonia) and buffer Yellow (Naxo, Estonia). Reaction was performed in a 10 ul volume, using 0.5 ul cDNA as a template. Following primer sets were designed for this study:
(§5) The cells were treated with peptides (1 μM) 24 hours for the mRNA analysis and 72 hours for protein analysis. All experiments were done in triplicates. Variation between replicates was less that 15%.

[4] = tested on: human dermal fibroblasts; assay: Effect of peptides on expression of growth factors, mRNA (RT-PCR); assay type: cell-based
Procedure: as §3, §4
The cDNA was amplified by PCR using the 2,5U Hot-Firepol (Solis BioDyne, Estonia) and buffer Yellow (Naxo, Estonia). Reaction was performed in a 10 ul volume, using 0.5 ul cDNA as a template. Primer sets were designed to specifically amplify the nucleic acid sequence for the corresponding growth factor for this study: […]

[5] = tested on: dermal fibroblasts; assay: Effect of interfering peptides on expression of ECM components, protein level (Western blot); assay type: cell-based, human
Procedure: as §1, §2, §5

[6] = tested on: human dermal fibroblasts; assay: Whole genome gene expression analysis (Affymetrix GeneChip Human Gene 1.0 ST Array); assay type: cell-based; details: peptide 10 μM, 24 hour
Procedure: Human dermal fibroblasts were cultured in standard conditions (DMEM, 10% FCS, penicillin+streptomycin) and used in experiments after three passages in the laboratory. Cells were grown in 60 mm plates, each treatment in duplicates. Cells were plated 16 hours prior treatments started. Peptides (10 μM) were added to the media, and cells were collected for RNA isolation 24 hour later.
Total RNA was purified by using 4PCRmini kit (Ambion). First-strand cDNAs were synthesized with Superscript III reverse transcriptase (Invitrogen, USA) and 5 μg of total RNA using oligo d(T) priming in a final reaction volume of 50 μL and used to generate fluorescently labeled probes for whole genome gene expression analysis. Whole genome gene expression analysis was conducted using Affymetrix GeneChip™ Human Gene 1.0 ST Array.

[7] = fibroblast 1 (first block of Table 1)
[8] = second block of Table 1 (also fibroblast 1)

RPKKRKVRRRMGLGKTIQTIALITYLMEHKRINGP [BRG1.1, CPP-mimicking peptide]
collagen I, fold increase after 7 days [1, 7]: 7 fold
collagen II, fold increase after 7 days [1, 7]: 2 fold
elastin, fold increase after 7 days [1, 7]: 3 fold
collagen I, fold increase after 7 days [1, 8]: 3 fold
collagen II, fold increase after 7 days [1, 8]: 5 fold
elastin, fold increase after 7 days [1, 8]: 6 fold

RPKKRKVRRRLATNSELVGTLTRSCKDETFLL (synethetic amino acid sequence) [TAF4.1, CPP-mimicking peptide]
collagen I, fold increase after 7 days [1, 7]: 5 fold
collagen II, fold increase after 7 days [1, 7]: 3 fold
elastin, fold increase after 7 days [1, 7]: 4 fold
collagen I, fold increase after 7 days [1, 8]: 2 fold
collagen II, fold increase after 7 days [1, 8]: 4 fold
elastin, fold increase after 7 days [1, 8]: 2 fold

RPKKRKVRRRGQLNSDHKSQLVEKVRLKIGCGIQL [SMAD7.1, CPP-mimicking peptide]
CTGF protein, fold stimulation of expression compared to control [2]: 15 fold
HGF protein, fold stimulation of expression compared to control [2]: 1.7 fold
IGF-1 protein, fold stimulation of expression compared to control [2]: 1 fold
VEGF protein, fold stimulation of expression compared to control [2]: 1.3 fold
b-FGF protein, fold stimulation of expression compared to control [2]: 1 fold
MMP1 mRNA, fold stimulation [3]: 3.6 fold
MMP7 mRNA, fold stimulation [3]: 2.9 fold
MMp2 mRNA, fold stimulation [3]: 1.9 fold
TIMP mRNA, fold stimulation [3]: 4.3 fold
collagen IV mRNA, fold stimulation [3]: 5.4 fold
collagenI mRNA, fold stimulation [3]: 7.9 fold
elastin mRNA, fold stimulation [3]: 7.7 fold
fibronectin mRNA, fold stimulation [3]: 8.7 fold
thrombospondin mRNA, fold stimulation [3]: 6.9 fold
CTGF mRNA, fold stimulation of expression compared to control ([4]; peptide 10 μM): 27 fold
HGF mRNA, fold stimulation of expression compared to control ([4]; peptide 10 μM): 8 fold
IGF-1 mRNA, fold stimulation of expression compared to control ([4]; peptide 10 μM): 4 fold
VEGF mRNA, fold stimulation of expression compared to control ([4]; peptide 10 μM): 4 fold
b-FGF mRNA, fold stimulation of expression compared to control ([4]; peptide 10 μM): 2 fold
expression of CTGF (in words) ([4]; protein and mRNA): stimulate expression of CTGF significantly
expression of components of ECM (in words) ([5]; dermal fibroblasts in vitro, protein and mRNA): stimulate expression of components of ECM
CollagenI protein, fold stimulation ([5]; peptide 1 μM, 72 hours): 2.9 fold
Elastin protein, fold stimulation ([5]; peptide 1 μM, 72 hours): 2.6 fold
Fibronectin protein, fold stimulation ([5]; peptide 1 μM, 72 hours): 3.1 fold
MMP1 protein, fold stimulation ([5]; peptide 1 μM, 72 hours): 1.9 fold
MMP2 protein, fold stimulation ([5]; peptide 1 μM, 72 hours): 1.1 fold
MMP7 protein, fold stimulation ([5]; peptide 1 μM, 72 hours): 1.9 fold
TIMP protein, fold stimulation ([5]; peptide 1 μM, 72 hours): 1.3 fold
collagen IV protein, fold stimulation ([5]; peptide 1 μM, 72 hours): 2.1 fold
thrombospondin protein, fold stimulation ([5]; peptide 1 μM, 72 hours): 3.2 fold
Number of genes with altered expression: expression stimulated 2-5 fold [6]: 986
Number of genes with altered expression: expression stimulated more than 5 fold [6]: 198
Number of genes with altered expression: expression suppressed 2-5 fold [6]: 1011
Number of genes with altered expression: expression suppressed more than 5 fold [6]: 124
